Converted amounts (≈) assume the structure as drawn. Like-named read-outs stand apart in the source and are kept apart here. Residues, ends and D or L forms follow the SMILES beside them.
What was measured:
[1] = system: normal human epidermal keratinocytes (NHEKs); assay: LDH release cytotoxicity assay in keratinocytes; format: cell-based; details: minimal concentration giving 50% LDH release by NHEKs
Method in brief: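 Normal human epidermal keratinocytes were exposed to LL-34 parent and alanine-substituted peptides. Cytotoxicity was read as LDH release in fresh culture supernatants after treatment, using a commercial kit, and reported as the minimal concentration showing toxicity.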

[2] = system: NHEKs, IL-6 secretion in response to U1 dsRNA; assay: IL-6 secretion ELISA in NHEKs; format: cell-based, human; details: U1 dsRNA 2.5 μg/ml + peptide 2 μM, 18 h, n = 3
Method: Protein levels of human IL-6 were analyzed from cell supernatant with ELISA (n = 3). Corresponding MIC values of LL-34 peptides L1A–R34A against Staphylococcus aureus USA300 are shown in the heat map. B, human dermal endothelial cells (HDMECs) were treated with either U1 dsRNA (2.5 μg/ml) or a combination of U1 dsRNA (2.5 μg/ml) and LL-34 peptides (Pep 1–Pep 34 and Pep–parent LL-34) at 2 μM for 18 h. IL-6 ELISA results are shown (n = 3). Green bars denote loss of IL-6 protein secretion compared with parent control shown in red. C, helical wheel plot for LL-34. Amino acids with green circles denote specific residues where replacement with an alanine caused the loss of IL-6 secretion compared with parent LL-34 peptide in NHEKs cotreated with U1 dsRNA. D, in the helical wheel plot for LL-34, circled green amino acids indicate that a substitution caused a loss of vetting in HDMEC. E–H, NHEKs were treated with LL-34-parent peptide (LL-34-P), LL-34-F5A, LL-34-I24A, LL-34-F27A, and LL-34-L31A at 2 μM, either individually or in combination with U1 dsRNA (2.5 μg/ml) for 8 h. Gene expression of IL-6, IFNB1, TSLP, and CXCL10 was assessed with qRT-PCR. GAPDH was used as a reference gene (n = 3) (∗p < 0.05; ∗∗∗∗p < 0.0001). One way-ANOVA was used. IL-6, interleukin 6; LL-34, 34-amino acid peptide; MIC, minimum inhibitory concentration, ns, not significant.
We hypothesized that sequential replacement of each amino acid in LL-34 peptide with a neutral amino acid alanine might reveal the amino acid residues critical for its ability to induce inflammation in response to U1 dsRNA. First, we treated NHEKs and human dermal microvascular endothelial cells (HDMECs) with LL-34 parent peptide and each of the 34 mutants at 2 μM for 18 h and measured the secretion of interleukin 6 (IL-6) in the supernatant by ELISA (Fig. S1, A and B). […] We then treated both NHEKs and HDMECs with a combination of U1 dsRNA (2.5 μg/ml) and the LL-34 parent/mutant peptides at 2 μM for 18 h and measured IL-6 secretion (Fig. 1, A–C). […] A similar pattern of IL-6 release was observed when HDMECs were treated with the peptide library and U1 dsRNA (Fig. 1B).
Cell culture supernatant was frozen at −80 °C until use for analysis. ELISA was performed with sandwich ELISA kits (R&D Systems) and quantified on a Spectramax Absorbance reader (Molecular Biosystems). Data were analyzed with GraphPad.

[3] = system: methicillin-resistant Staphylococcus aureus strain USA300; format: cell-based; details: for Antimicrobial potency against S. aureus USA300 compared with LL-34 parent peptide: MIC comparison with parent (MIC 25 μM), 18 h
Text: Since LL-34 was the minimal truncation mutant of LL-37 that retained both antimicrobial and immune modulatory activity, we prepared a series of synthetic peptides with sequential substitutions of alanine at each amino acid position of the LL-34 parent peptide (Table 1). We compared the minimum inhibitory concentration (MIC) for the LL-34 parent peptide and the alanine mutants (LL-34 peptides—L1A and R34A) against methicillin-resistant Staphylococcus aureus strain USA300 (Fig. 1A). LL-34 peptides were incubated at concentrations of 0 to 100 μM with bacteria. The minimal concentration at which no growth was observed was noted after 18 h of incubation. […] Because of these changes in the MIC against S. aureus between the mutants, we investigated the effective toxicity profile of the peptides in normal human epidermal keratinocytes (NHEKs) by lactate dehydrogenase (LDH) release assay (Table 1). […] Most other peptides were cytotoxic at a minimal concentration of 10 μM, whereas LL-34—K15A was toxic at a concentration of 2.5 μM.
Methicillin-resistant S. aureus USA300 and methicillin-sensitive S. aureus SA113 (American Type Culture Collection 35556) were cultured in 3% tryptic soy broth overnight at 37 °C with shaking at 250 rpm. GAS M49 strain NZ131 was cultured in Todd Hewitt broth supplemented with 1% yeast extract overnight at 37 °C without shaking. E. coli R1 strain RS218 was cultured in LB broth overnight at 37 °C with shaking at 250 rpm. MIC values were determined using a round-bottom 96-well microdilution method with RPMI cell culture media (as a source of Ca^2+ and Mg^2+) supplemented with tryptic soy broth, Todd Hewitt broth/yeast extract, or LB to facilitate growth of the respective bacterial strains. Overnight bacterial cultures were subcultured into fresh broth and grown to midlate log phase indicated by an absorbance at 600 nm value between 0.8 and 1.0 for each bacterial strain. The absorbance was then normalized to provide a concentration of 1 × 10^7 colony-forming units/ml in RPMI medium. The LL-34 parent and alanine scan mutants were serially diluted into the 96-well microtiter plates containing prewarmed RPMI bacterial growth medium. A 10 μl aliquot of the midlate log phase bacteria was inoculated into the 96-well microtiter plates that contained 95 μl of RPMI medium with or without the LL-34 peptide dilutions and incubated for 16 to 18 h at […] with shaking at 200 rpm. Inhibition of growth was determined by measuring the absorbance at 600 nm readings of each well using a microplate reader (Infinite M200 Pro; Tecan). The MIC of each bacterial strain was determined by the lowest peptide concentration that inhibited more than 80% bacterial growth.

Row | SMILES | Minimal cytotoxic concentration in NHEK (LD50) [1] [µM] | IL-6 protein secretion, cotreatment with U1 dsRNA, vs U1 dsRNA + LL-34 parent [2] | Antimicrobial potency against S. aureus USA300 compared with LL-34 parent peptide [3] | Antimicrobial potency against S. aureus USA300 compared with LL-34 parent peptide ([3]; listed as IL3a) | MIC against S. aureus USA300 ([3]; USA300, 18 h) [µM]
1 | CC[C@H](C)[C@H](NC(=O)[C@H](CCCNC(=N)N)NC(=O)[C@H](CCC(N)=O)NC(=O)[C@@H](NC(=O)[C@@H](NC(=O)[C@H](CCCNC(=N)N)NC(=O)[C@H](CCCCN)NC(=O)[C@H](Cc1ccccc1)NC(=O)[C@H](CCC(=O)O)NC(=O)[C@H](CCCCN)NC(=O)CNC(=O)[C@H](C)NC(=O)[C@H](CCCCN)NC(=O)[C@H](CCC(=O)O)NC(=O)[C@H](CCCCN)NC(=O)[C@H](CO)NC(=O)[C@H](CCCCN)NC(=O)[C@H](CCCNC(=N)N)NC(=O)[C@H](Cc1ccccc1)NC(=O)[C@H](Cc1ccccc1)NC(=O)[C@H](CC(=O)O)NC(=O)CNC(=O)[C@H](CC(C)C)NC(=O)[C@@H](N)CC(C)C)[C@@H](C)CC)C(C)C)C(=O)N[C@@H](CCCCN)C(=O)N[C@@H](CC(=O)O)C(=O)N[C@@H](Cc1ccccc1)C(=O)N[C@@H](CC(C)C)C(=O)N[C@@H](CCCNC(=N)N)C(=O)N[C@@H](CC(N)=O)C(=O)N[C@@H](CC(C)C)C(=O)N[C@H](C(=O)N1CCC[C@H]1C(=O)N[C@@H](CCCNC(=N)N)C(=O)O)C(C)C [LL-34—I13A] (H-LLGDFFRKSKEKAGKEFKRIVQRIKDFLRNLVPR-OH) | 5 | reduced secretion of IL-6 protein | killed S. aureus USA300 more potently | gained antimicrobial activity | 
2 | CC[C@H](C)[C@H](NC(=O)[C@H](CCCCN)NC(=O)[C@H](CCC(=O)O)NC(=O)[C@H](CCCCN)NC(=O)[C@H](CO)NC(=O)[C@H](CCCCN)NC(=O)[C@H](CCCNC(=N)N)NC(=O)[C@H](Cc1ccccc1)NC(=O)[C@H](Cc1ccccc1)NC(=O)[C@H](CC(=O)O)NC(=O)CNC(=O)[C@H](CC(C)C)NC(=O)[C@@H](N)CC(C)C)C(=O)NCC(=O)N[C@@H](CCCCN)C(=O)N[C@@H](CCC(=O)O)C(=O)N[C@@H](Cc1ccccc1)C(=O)N[C@@H](CCCCN)C(=O)N[C@@H](CCCNC(=N)N)C(=O)N[C@H](C(=O)N[C@H](C(=O)N[C@@H](CCC(N)=O)C(=O)N[C@@H](CCCNC(=N)N)C(=O)N[C@H](C(=O)N[C@@H](CCCCN)C(=O)N[C@@H](CC(=O)O)C(=O)N[C@@H](Cc1ccccc1)C(=O)N[C@@H](CC(C)C)C(=O)N[C@@H](CCCNC(=N)N)C(=O)N[C@@H](CC(N)=O)C(=O)N[C@@H](CC(C)C)C(=O)N[C@H](C(=O)N1CCC[C@H]1C(=O)N[C@@H](C)C(=O)O)C(C)C)[C@@H](C)CC)C(C)C)[C@@H](C)CC [LL-34—R34A] (H-LLGDFFRKSKEKIGKEFKRIVQRIKDFLRNLVPA-OH) | 10 |  | reduced MIC compared with the parent peptide |  | 
3 | CC[C@H](C)[C@H](NC(=O)[C@H](CCCCN)NC(=O)[C@H](CCC(=O)O)NC(=O)[C@H](CCCCN)NC(=O)[C@H](CO)NC(=O)[C@H](CCCCN)NC(=O)[C@H](CCCNC(=N)N)NC(=O)[C@H](Cc1ccccc1)NC(=O)[C@H](Cc1ccccc1)NC(=O)[C@H](CC(=O)O)NC(=O)CNC(=O)[C@H](CC(C)C)NC(=O)[C@@H](N)CC(C)C)C(=O)NCC(=O)N[C@@H](CCCCN)C(=O)N[C@@H](CCC(=O)O)C(=O)N[C@@H](Cc1ccccc1)C(=O)N[C@@H](CCCCN)C(=O)N[C@@H](CCCNC(=N)N)C(=O)N[C@H](C(=O)N[C@H](C(=O)N[C@@H](CCC(N)=O)C(=O)N[C@@H](CCCNC(=N)N)C(=O)N[C@H](C(=O)N[C@@H](CCCCN)C(=O)N[C@@H](CC(=O)O)C(=O)N[C@@H](Cc1ccccc1)C(=O)N[C@@H](CC(C)C)C(=O)N[C@@H](CCCNC(=N)N)C(=O)N[C@@H](CC(N)=O)C(=O)N[C@@H](CC(C)C)C(=O)N[C@H](C(=O)N1CCC[C@H]1C(=O)N[C@@H](CCCNC(=N)N)C(=O)O)C(C)C)[C@@H](C)CC)C(C)C)[C@@H](C)CC [LL-34—parent] (H-LLGDFFRKSKEKIGKEFKRIVQRIKDFLRNLVPR-OH) | 5 |  |  |  | 25 (≈ 104 µg/mL)
4 | CC[C@H](C)[C@H](NC(=O)[C@H](CCCCN)NC(=O)[C@H](CCC(=O)O)NC(=O)[C@H](CCCCN)NC(=O)[C@H](CO)NC(=O)[C@H](CCCCN)NC(=O)[C@H](CCCNC(=N)N)NC(=O)[C@H](Cc1ccccc1)NC(=O)[C@H](Cc1ccccc1)NC(=O)[C@H](CC(=O)O)NC(=O)CNC(=O)[C@H](CC(C)C)NC(=O)[C@@H](N)CC(C)C)C(=O)NCC(=O)N[C@@H](CCCCN)C(=O)N[C@@H](CCC(=O)O)C(=O)N[C@@H](Cc1ccccc1)C(=O)N[C@@H](CCCCN)C(=O)N[C@@H](CCCNC(=N)N)C(=O)N[C@H](C(=O)N[C@H](C(=O)N[C@@H](CCC(N)=O)C(=O)N[C@@H](CCCNC(=N)N)C(=O)N[C@H](C(=O)N[C@@H](CCCCN)C(=O)N[C@@H](CC(=O)O)C(=O)N[C@@H](Cc1ccccc1)C(=O)N[C@@H](C)C(=O)N[C@@H](CCCNC(=N)N)C(=O)N[C@@H](CC(N)=O)C(=O)N[C@@H](CC(C)C)C(=O)N[C@H](C(=O)N1CCC[C@H]1C(=O)N[C@@H](CCCNC(=N)N)C(=O)O)C(C)C)[C@@H](C)CC)C(C)C)[C@@H](C)CC [LL-34—L28A] (H-LLGDFFRKSKEKIGKEFKRIVQRIKDFARNLVPR-OH) | 5 | reduced secretion of IL-6 protein | killed S. aureus USA300 more potently |  | 

— publication PMC8214221, “Sequence determinants in the cathelicidin LL-37 that promote inflammation via presentation of RNA to scavenger receptors” (The Journal of Biological Chemistry, 2021)
